The text below walks through data of patent US8883833B2, “Substituted benzoazole PDE4 inhibitors for treating inflammatory, cardiovascular and CNS disorders” (Decode Genetics EHF, priority 2007, dated 2014).

Bounds are passed on as bounds.

In test [1] the test system is human. The following applies: human clinical trials; cited from earlier work.
The test system of test [2] is rat model of Huntington's disease. The following applies: cited from earlier work.
The subject of test [3] is primates. As to conditions: cited from earlier work.
In test [4] the test system is mice. The following applies: two separate studies in mice in vivo; cited from earlier work.
Test [5] concerns rodent models. The following applies: multiple rodent models; cited from earlier work.
Test [6] deals with patients suffering from asthma and COPD. The following applies: cited from earlier work; for results of administration to patients: asthma and COPD patients, initial.
The test system of test [7] is rat model. As to conditions: rat model in vivo; cited from earlier work.
Test [8] deals with rats. As to conditions: cited from earlier work.
Test [9] deals with h4D7 (Homo sapiens, UniProt Q08499). Description: In-vitro assay for PDE4 enzymes, real-time enzyme-coupled spectrophotometric assay (Table 3). The test is classed as biochemical. The procedure: (§1) In-vitro assay for PDE4 enzymes. The in-vitro activity of PDE4 enzymes and the in-vitro potency of therapeutic agents described in the present invention was measured using a real-time, enzyme-coupled spectrophotometric assay. By using three different coupling enzymes, the product of the PDE4 reaction is coupled to the oxidation of the reduced form β-nicotinamide adenine dinucleotide (NADH), which dissipation can be monitored spectrophotmetrically at […]. Assay description. Buffer A containing 50 mM Tris, pH 8.0, 16 mM MgCl2 and 80 mM KCl is prepared and stored at room temperature. Buffer B containing 50 mM Tris, pH 8.0 is prepared and stored at toom temperature. Stock solutions of the following reagents are prepared in Buffer B and stored at −20° C.: Adenosine-5′-triphosphate (ATP), cyclic adenosine-5′-monophosphate (cAMP), phosphoenolpyruvate (PEP) and NADH. An assay mix is prepared by mixing Buffer A, […] (TCEP), ATP, PEP, NADH, myokinase (MK), pyruvate kinase (PK), lactate dehydroganese (LDH) and PDE4 to a final volume of 20 mL, which is enough for a single 96-well assay plate. Assay mix (180 μL) and test article (10 μL) in 1:1 DMSO/H2O mixture is pre-incubated at room temperature for 10 min. The enzymatic reaction is initiated by addition of cAMP (10 μL). Final concentration of all components in the assay (200 μL/well) are as follows: 10 mM MgCl2, 50 mM KCl, 5 mM TCEP, 2.5% DMSO, 0.4 mM NADH, 1 mM PEP, 0.04 mM ATP, 5 units MK, 1 unit PK, 1 unit LDH and appropriate amount of PDE4. Reaction progress curves are monitored in a plate reader capable of measuring light absorbance at 340 nm. A decrease in light absorbance at 340 nm is due to oxidation of NADH. Positive controls containing no test article and negative controls containing no test article and no cAMP are included on every assay plate. Reaction rates are determined from the slopes of the linear portions of the progress curves. All data is percent normalized with respect to controls and presented as percent inhibition.

The target of test [10] is h4B1 (Homo sapiens, UniProt Q07343). Described as above. It is filed as biochemical. The procedure: as §1
Chain of h4B1 (Q07343 whole entry): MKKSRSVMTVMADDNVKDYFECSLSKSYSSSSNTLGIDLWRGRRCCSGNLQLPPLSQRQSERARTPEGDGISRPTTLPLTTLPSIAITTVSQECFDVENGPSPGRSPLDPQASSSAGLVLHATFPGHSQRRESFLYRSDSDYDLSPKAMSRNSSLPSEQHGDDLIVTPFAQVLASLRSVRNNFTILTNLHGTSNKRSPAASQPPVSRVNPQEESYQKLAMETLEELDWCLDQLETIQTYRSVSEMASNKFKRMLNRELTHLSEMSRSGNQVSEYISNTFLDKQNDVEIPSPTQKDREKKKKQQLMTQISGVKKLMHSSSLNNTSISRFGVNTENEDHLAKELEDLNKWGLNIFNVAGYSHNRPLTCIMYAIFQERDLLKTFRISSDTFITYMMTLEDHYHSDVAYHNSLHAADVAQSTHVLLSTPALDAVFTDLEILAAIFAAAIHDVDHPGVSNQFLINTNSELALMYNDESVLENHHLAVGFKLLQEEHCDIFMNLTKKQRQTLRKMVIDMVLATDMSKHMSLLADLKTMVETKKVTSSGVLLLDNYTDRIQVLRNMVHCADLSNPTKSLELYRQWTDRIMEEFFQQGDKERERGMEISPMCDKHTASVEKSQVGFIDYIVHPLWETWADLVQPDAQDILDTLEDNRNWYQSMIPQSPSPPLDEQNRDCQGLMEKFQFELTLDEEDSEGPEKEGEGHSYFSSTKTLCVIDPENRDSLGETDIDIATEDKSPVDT

Chain of h4D7 (Q08499 1-748 isoform Q08499-11): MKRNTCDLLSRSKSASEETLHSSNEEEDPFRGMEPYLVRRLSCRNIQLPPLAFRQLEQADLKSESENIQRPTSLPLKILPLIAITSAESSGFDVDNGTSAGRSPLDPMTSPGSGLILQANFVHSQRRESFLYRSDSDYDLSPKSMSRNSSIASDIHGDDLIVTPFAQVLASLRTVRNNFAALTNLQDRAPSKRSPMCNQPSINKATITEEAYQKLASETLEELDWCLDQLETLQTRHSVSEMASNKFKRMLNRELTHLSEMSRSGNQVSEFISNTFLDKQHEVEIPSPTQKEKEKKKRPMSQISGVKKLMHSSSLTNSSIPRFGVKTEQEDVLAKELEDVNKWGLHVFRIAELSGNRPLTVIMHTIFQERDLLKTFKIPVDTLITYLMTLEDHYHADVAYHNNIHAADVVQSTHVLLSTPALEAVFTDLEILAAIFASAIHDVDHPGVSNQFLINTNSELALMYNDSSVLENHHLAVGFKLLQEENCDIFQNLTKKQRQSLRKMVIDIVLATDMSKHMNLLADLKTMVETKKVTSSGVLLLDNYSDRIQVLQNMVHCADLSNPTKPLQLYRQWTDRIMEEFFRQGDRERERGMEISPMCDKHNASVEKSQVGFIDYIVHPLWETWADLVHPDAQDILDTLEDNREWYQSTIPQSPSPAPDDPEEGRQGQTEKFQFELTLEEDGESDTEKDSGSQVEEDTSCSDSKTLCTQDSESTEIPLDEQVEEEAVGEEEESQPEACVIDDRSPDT

With `COc1ccc(C2CNC(=O)C2)cc1OC1CCCC1` (centres unmarked) [Rolipram], the depression entry in test [1] is on record as “ameliorate depression”. Moreover, the neuroprotection entry in test [2] is given as “neuroprotective effect”. In addition, the cognition result in test [3] and in test [5] was “enhance cognition” in each case. In addition, the “outcome in schizophrenia models” value in test [4] is on record as “improves the outcome”.

For the molecule `O=C(Nc1c(Cl)cncc1Cl)c1ccc(OC(F)F)c(OCC2CC2)c1` [roflumilast], in [6], the “results of administration to patients” value is recorded as “initially excellent results”.

As to `Cc1noc(/C(=C/c2cccc(-c3cc(C(C)(C)S(C)(=O)=O)cc4cccnc34)c2)c2ccc(S(C)(=O)=O)cc2)n1` [L-454,560], the learning result in [7] is reported as “improve learning”.

Take `CCc1ccc2c(-c3cccc(Cl)c3)nc(=O)n(CC)c2n1` [YM976]: in test [8], the “effects of experimentally-induced interstitial cystitis” value was “ameliorate the effects”, the frequency of urination result is “decrease” and the “volume of urine at each time of urination” value is given as “increase”.

Regarding `COc1ccc([C@]2(C#N)CC[C@@H](C(=O)O)CC2)cc1OC1CCCC1` [cilomilast], in test [6], the “results of administration to patients” value is “initially excellent results”. Further, in test [6] (long-term trial), the “effect on long-term trial” value is “disappeared”.

Consider `COc1ccc(Cc2cc3scnc3c(-c3cccc(Cl)c3)c2F)cn1` [Example 38, 4-(3-chloro-phenyl)-5-fluoro-6-(6-methoxy-pyridin-3-ylmethyl)-benzothiazole], for which the IC50 (as a rule, the point on the concentration scale where inhibition reaches its midpoint) in test [9] was less than 1 µM; in test [10] it was 1 to 10 µM.
